Key:
[1] = 100 kPa, Liquid; for viscosity: Capillary tube (Ostwald / Ubbelohde) method; for speed of sound: Frequency=2 MHz, Linear variable-path acoustic interferometer; for mass density: Vibrating tube method
[2] = xn = mol fraction of the nth substance listed; settings: 100 kPa, Liquid, x2 = 0; for viscosity: Capillary tube (Ostwald / Ubbelohde) method; for speed of sound: Frequency=2 MHz, Linear variable-path acoustic interferometer; for mass density: Vibrating tube method

Brc1ccccc1 [bromobenzene]
[1]
Settings | mass density [kg/m3] | speed of sound [m/s] | viscosity [mPa·s]
303.15 K | 1481.52 | 1136 | 0.982
308.15 K | 1475.36 | 1122 | 0.953
313.15 K | 1468.02 | 1109 | 0.892
318.15 K | 1461.36 | 1099 | 0.848

Brc1ccccc1 [bromobenzene] + Nc1cccc(Cl)c1
[2]
Settings | mass density [kg/m3] | speed of sound [m/s] | viscosity [mPa·s]
303.15 K | 1481.52 | 1136 | 0.982
308.15 K | 1475.36 | 1122 | 0.953
313.15 K | 1468.02 | 1109 | 0.892
318.15 K | 1461.36 | 1099 | 0.848

Clc1ccccc1 [chlorobenzene]
[1]
Settings | mass density [kg/m3] | speed of sound [m/s] | viscosity [mPa·s]
303.15 K | 1095.54 | 1248.2 | 0.712
308.15 K | 1089.72 | 1226 | 0.675
313.15 K | 1084.71 | 1206 | 0.634
318.15 K | 1079.45 | 1181 | 0.602

Clc1ccccc1 [chlorobenzene] + Nc1cccc(Cl)c1
[2]
Settings | mass density [kg/m3] | speed of sound [m/s] | viscosity [mPa·s]
303.15 K | 1095.54 | 1248.2 | 0.712
308.15 K | 1089.72 | 1226 | 0.675
313.15 K | 1084.71 | 1206 | 0.634
318.15 K | 1079.45 | 1181 | 0.602

O=[N+]([O-])c1ccccc1 [nitrobenzene]
[1]
Settings | mass density [kg/m3] | speed of sound [m/s] | viscosity [mPa·s]
303.15 K | 1193.45 | 1438 | 1.627
308.15 K | 1188.29 | 1420 | 1.498
313.15 K | 1183.69 | – | 1.388
318.15 K | 1177.32 | 1385 | 1.275

O=[N+]([O-])c1ccccc1 [nitrobenzene] + Nc1cccc(Cl)c1
[2]
Settings | mass density [kg/m3] | speed of sound [m/s] | viscosity [mPa·s]
303.15 K | 1193.45 | 1438 | 1.627
308.15 K | 1188.29 | 1420 | 1.498
313.15 K | 1183.69 | 1402 | 1.388
318.15 K | 1177.32 | 1385 | 1.275

From the NIST ThermoML archive (doi:10.1016/j.jct.2016.05.015)
